Test results as given in article PMC6400998, “Soy Isoflavone Extract Does Not Increase the Intoxicating Effects of Acute Alcohol Ingestion in Human Volunteers” (Frontiers in Pharmacology, 2019).
Values belong to the molecule of their own block, whether it stands above or below them.

Assays:
[1] = Plasma concentrations of daidzein, genistein and equol after soy extract (LC/MS/MS); conditions: for Tmax / Cmax: human
Experimental: (§1) The study was a randomized, single-blinded (the participants were informed that they could receive different doses of alcohol in the two sessions), and crossover clinical trial. Subjects participated in two different experimental sessions separated by at least 3 days. In one session they received a glass of water (240 mL) and 2 h later a single oral dose of alcohol was administered (0.5 g/kg, Vodka Absolut® 40°, Sweden); in the other, they were given four capsules containing a soy extract product with a glass of water (240 mL) and 2 h later the same dose of alcohol.
A commercial soy extract product (Super-Absorbable Soy Isoflavones®, hard gelatin capsules, Life-Extension, United States) was employed. According to the manufacturer each capsule contained 54 mg of total isoflavones (22 mg daidzin-daidzein, 28 mg genistin-genistein, and 4 mg glycitin-glycitein).
Ethanol was determined in blood (DRI® Ethyl Alcohol Assay, Thermo Fisher, Fremont, CA, United States) and breath (Alcotest, Dräger, Germany).

male mice = tested on: male mice; set-up: method as in Martin et al., 2013; conditions: ref Martin et al., 2013; cited from earlier work
healthy male volunteers [2] = experiment: Addiction Research Center Inventory (ARCI) 49-item short form questionnaire; type: in vivo, human; conditions: n = 10
[3] = Pharmacokinetics of alcohol (ethanol) in plasma
Experimental: as §1
Blood samples and ethanol breath concentrations were collected at baseline (before soy extract administration), and at 2 (before ethanol administration), 2.25, 2.5, 2.75, 3, 4, 5, 6, 7, 8, 10, and 24 h after soy extract administration. Ethanol was determined in blood (DRI® Ethyl Alcohol Assay, Thermo Fisher, Fremont, CA, United States) and breath (Alcotest, Dräger, Germany). Daidzein, genistein, and the endogenous metabolite equol were determined by liquid chromatography coupled to tandem mass spectrometry (LC/MS/MS) using a validated method ([Rodríguez-Morató et al., 2015]).
Peak concentration (Cmax), time to reach peak concentrations (Tmax), and area under the concentration-time curve from 0 to 10 h (AUC0-10) from ethanol plasma concentrations over time were determined using Pharmacokinetic Functions for Microsoft Excel (Joel Usansky, Atul Desai, and Diane Tang-Liu, Department of Pharmacokinetics and Drug Metabolism, Allergan, Irvine, CA, United States).

healthy male volunteers [4] = experiment: Subjective and adverse effects by visual analog scales (VAS, 100 mm)
Experimental: as §1
Subjective effects were evaluated using a set of visual analog scales (VAS) at baseline (0 h), 2, 2.25, 2.5, 2.75, 3, 3.5, 4, 5, 6, 8, and 10 h after first administration. VAS (100 mm) were labeled with different adjectives marked at opposite ends from “not at all” to “extremely” ([Peiró et al., 2013]; [Farré et al., 2015]; [Papaseit et al., 2016]). Subjects were asked to rate effects of drunkenness, content, nausea, vertigo, dizziness, feeling of face flushing, headache, and breathing difficulty.
(§2) Differences with respect to baseline were calculated for vital signs (SBP, DBP, HR, and OT-FT) and subjective effects (VAS, ARCI). Maximum/peak effects (Emax) and the time to reach maximum effects (tmax) were also determined for the previously mentioned variables. The area under the curve of the concentrations from 0 to 10 h (AUC0-10 h) using the trapezoidal rule was calculated for vital signs and subjective effects.
(§3) For the statistical comparison of AUC and Emax a Student’s t-test for paired samples was employed. For tmax a non-parametric Wilcoxon test was used. A repeated measure ANOVA with two factors (treatment and time) was used to compare the time course of effects. When treatment or the treatment × time interaction was statistically significant, multiple Tukey post hoc comparisons were performed at each time point.

healthy male volunteers [5] = experiment: Physiological effects (vital signs: SBP, DBP, HR, oral and cutaneous facial temperature) after alcohol with or without soy extract; conditions: difference with respect to baseline; for FT Emax: cutaneous facial temperature
Experimental: as §1
Non-invasive systolic blood pressure (SBP), diastolic blood pressure (DBP), heart rate (HR), oral and cutaneous facial temperature (OT, FT) were repeatedly recorded at baseline, immediately before capsule administration, and at 2 (immediately before beverage administration), 2.5, 3, 4, 5, 6, 8, and 10 h after first administration. All assessments were carried out with a DinamapTM 8100-T vital signs monitor (Critikon, Tampa, FL, United States). Cutaneous facial temperature was measured at the same time with an additional monitor (Critikon, Tampa, FL, United States).
as §2, §3

[6] = alcohol 0.5 g/kg oral, 2 h after soy extract (four capsules) or water, Mean ± SD, n = 10
[7] = difference with respect to baseline, AUC 0-10 h, n = 10
[8] = difference with respect to baseline, peak effect, n = 10

- Tmax ([1]; in vivo, 4 capsules, Tmax for the first peak, first of double peaks in plasma after soy extract): 2 to 4 h
- Cmax ([1]; in vivo, po, 4 capsules): 1040 ng/mL
- Tmax ([1]; in vivo, po, 4 capsules, time of peak plasma concentration, after four capsules of soy extract, oral, n = 10): 7.3 h
SMILES: O=c1c(-c2ccc(O)cc2)coc2cc(O)cc(O)c12 [genistein]
- cocaine-reinforcing effects (male mice): decreased
- cue-induced cocaine relapse (male mice): not

SMILES: CCO [Alcohol, ethanol]
- ARCI-MBG AUC0-10 (healthy male volunteers [2]; euphoria subscale, AUC 0-10 h): 3.4 ± 3.2
- ARCI-MBG Emax (healthy male volunteers [2]; euphoria subscale, difference with respect to baseline, peak effect): 2.7 ± 3.3
- ARCI-LSD Emax (healthy male volunteers [2]; first ARCI-LSD line of Table 1 (r36), dysphoria and somatic symptoms subscale, peak effect): 5.2 ± 1.7
- ARCI-LSD AUC0-10 (healthy male volunteers [2]; first ARCI-LSD line of Table 1 (r37), AUC 0-10 h): 43.2 ± 8.27
- ARCI-BG ARCI-A Emax (healthy male volunteers [2]; line printed ARCI-BG ARCI-A (r40), peak effect): 1.8 ± 1.686
- ARCI-BG ARCI-A AUC0-10 (healthy male volunteers [2]; line printed ARCI-BG ARCI-A (r41), AUC 0-10 h): 4.5 ± 4.47
- ARCI-LSD Emax (healthy male volunteers [2]; second line printed ARCI-LSD in Table 1 (r38), peak effect): 4.6 ± 1.07
- ARCI-LSD AUC0-10 (healthy male volunteers [2]; second line printed ARCI-LSD in Table 1 (r39), AUC 0-10 h): 36.7 ± 5.5
- ARCI-PCAG AUC0-10 (healthy male volunteers [2]; sedation subscale, AUC 0-10 h): 14.05 ± 14.2
- ARCI-PCAG Emax (healthy male volunteers [2]; sedation subscale, difference with respect to baseline, peak effect): 3.4 ± 3.59
- alcohol concentrations in plasma 10 h after drug administration ([3]; 10 h after drug administration): undetectable
- AUC0-10 of alcohol in plasma [3, 6]: 219.67 ± 27.2 ng/mL/h
- Cmax of alcohol in plasma [3, 6]: 77 ± 22.25 ng/mL
- VAS score for headache at 8 h (healthy male volunteers [4]; 8 h after first administration, p < 0.01): 16 mm
- VAS Content AUC0-10 (healthy male volunteers [4]; [7]): 29.91 ± 47.07
- VAS Drunkenness AUC0-10 (healthy male volunteers [4]; [7]): 25.387 ± 35.1
- VAS Breathing difficulty Emax (healthy male volunteers [4]; [8]): 0 mm
- VAS Content Emax (healthy male volunteers [4]; [8]): 23.9 ± 26.2 mm
- VAS Dizziness Emax (healthy male volunteers [4]; [8]): 10.9 ± 18.3 mm
- VAS Drunkenness Emax (healthy male volunteers [4]; [8]): 20.8 ± 19.1 mm
- VAS Face flushing Emax (healthy male volunteers [4]; [8]): 9.6 ± 14.9 mm
- VAS Headache Emax (healthy male volunteers [4]; [8]): 16.2 ± 27.9 mm
- VAS Nausea Emax (healthy male volunteers [4]; [8]): 0.8 ± 1.75 mm
- VAS Vertigo Emax (healthy male volunteers [4]; [8]): 2.2 ± 6.9 mm
- FT Emax (healthy male volunteers [5]; peak effect, n = 10): 1.59 ± 0.67 °C
- FT Emax (healthy male volunteers [5]; peak effect, n = 10, listed as alcohol): 1.59 °C
- DBP Emax (healthy male volunteers [5]; diastolic blood pressure, peak effect, n = 10): –10.5 ± 8.72 mmHg
- HR Emax (healthy male volunteers [5]; heart rate, peak effect, n = 10): –1.2 ± 15.26 beats/min
- OT Emax (healthy male volunteers [5]; oral temperature, peak effect, n = 10): –0.23 ± 0.47
- SBP Emax (healthy male volunteers [5]; systolic blood pressure, peak effect, n = 10): –9.2 ± 11.05 mmHg
- reduction of DBP at 2 h (healthy male volunteers [5]; time course, 2 h after first administration, p < 0.05): -2.89
- reduction of DBP at 3 h (healthy male volunteers [5]; time course, 3 h after first administration, p < 0.05): -4.5
- reduction of DBP at 4 h (healthy male volunteers [5]; time course, 4 h after first administration, p < 0.01): -9.67
- reduction of DBP at 8 h (healthy male volunteers [5]; time course, 8 h after first administration, p < 0.05): -4.78

SMILES: O=c1c(-c2ccc(O)cc2)coc2cc(O)ccc12 [daidzein]
- time of peak plasma concentration ([1]; after four capsules of soy extract, oral, n = 10): around 6 h
- Tmax ([1]; plasma, oral, 4 capsules, Tmax for the first peak, first of double peaks in plasma after soy extract): 2 to 4 h
- Cmax ([1]; plasma, po, 4 capsules): 1020 ng/mL
- Tmax ([1]; plasma, po, 4 capsules, time of peak plasma concentration, after four capsules of soy extract, oral, n = 10): 6.1 h
- cocaine-reinforcing effects (male mice): decreased
- cue-induced cocaine relapse (male mice): reduced

- Tmax ([1]; in vivo, po, time of peak plasma concentration): 24 h
SMILES: Oc1ccc([C@H]2COc3cc(O)ccc3C2)cc1 [equol]
